From patent US10016424B2, “Method and pharmaceutical composition for use in the treatment of epilepsy” (INSERM (Institut National de la Sante et de la Recherche …, priority 2013, dated 2018)

Experiments:
[1] = biological target: GluK2/GluK5 receptors (Homo sapiens, UniProt Q13002+Q16478); settings: cited from earlier work
[2] = test system: bursts driven by recurrent mossy fibers in DG; assay: Antidromically evoked bursts (coastline burst index) in dentate gyrus of acute slices from pilocarpine-treated mice; assay type: cell-based, mouse; settings: WT mice; bath application
Experimental: All experiments were approved by the Institut National de la Santé et de la Recherche Médicale animal care and use committee of May 29, 2001 (2001-464) and the European community council directive of Nov. 24, 1986 (86/609/EEC). Mice (FVB/N background) had access to food and water ad libitum and were housed under a 12 h light/dark cycle at 22-24° C. Male GluK2−/− and WT mice (P60-80) were given scopolamine (1 mg/kg) subcutaneously (s.c.) 15 minutes prior to s.c. administration of pilocarpine (200-600 mg/kg). A ramp protocol was used whereby animals were given an initial dose of 200 mg/kg followed by half-doses every 30 minutes until seizures appeared. […] Diazepam (10 mg/kg) was administered 45 minutes after onset of SE. […]
Cultured or acute slices were individually transferred to a recording chamber maintained at 30-32° C. and continuously perfused (2 ml/min) with oxygenated normal or adapted ACSF containing 5 μM gabazine. […] Signals were analyzed off-line using Clampfit 9.2 (PClamp) and MiniAnalysis 6.0.1 (Synaptosoft, Decatur, Ga.). In organotypic slices, spontaneous EPSCs were recorded at the reversal potential for GABAergic currents (Vh=−70 mV). To characterize the nature and kinetic properties of fast and slow events, miniature EPSCs (mEPSCs) evoked in Sr2+ conditions (external Ca2+ was substituted with 1.2 mM Sr2+) were recorded in DGCs from GluK2−/− and WT slices. […]

Sequence of GluK2/GluK5 receptors (Q13002 32-908): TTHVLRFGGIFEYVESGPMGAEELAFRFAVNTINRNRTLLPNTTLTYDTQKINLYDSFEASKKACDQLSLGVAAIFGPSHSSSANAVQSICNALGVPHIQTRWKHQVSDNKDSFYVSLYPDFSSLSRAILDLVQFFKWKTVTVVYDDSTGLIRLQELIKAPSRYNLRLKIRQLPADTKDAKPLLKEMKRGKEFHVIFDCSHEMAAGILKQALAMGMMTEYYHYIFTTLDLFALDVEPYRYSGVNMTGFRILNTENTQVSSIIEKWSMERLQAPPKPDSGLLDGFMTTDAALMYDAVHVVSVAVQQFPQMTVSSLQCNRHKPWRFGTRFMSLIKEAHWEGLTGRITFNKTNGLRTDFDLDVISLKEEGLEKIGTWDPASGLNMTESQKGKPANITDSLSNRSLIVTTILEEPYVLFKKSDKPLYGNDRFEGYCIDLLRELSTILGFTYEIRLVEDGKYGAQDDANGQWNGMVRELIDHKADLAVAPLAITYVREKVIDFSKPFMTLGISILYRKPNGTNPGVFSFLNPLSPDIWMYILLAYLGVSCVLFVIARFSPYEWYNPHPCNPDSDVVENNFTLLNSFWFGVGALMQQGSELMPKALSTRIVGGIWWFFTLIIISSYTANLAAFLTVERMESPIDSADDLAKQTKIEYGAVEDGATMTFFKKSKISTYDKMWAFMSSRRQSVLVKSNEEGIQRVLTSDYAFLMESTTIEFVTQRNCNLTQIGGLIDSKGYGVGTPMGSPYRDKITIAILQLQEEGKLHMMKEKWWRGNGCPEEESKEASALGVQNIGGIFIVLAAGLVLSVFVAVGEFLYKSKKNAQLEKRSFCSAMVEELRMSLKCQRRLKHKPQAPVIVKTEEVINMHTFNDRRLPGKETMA
Sequence of GluK2/GluK5 receptors (Q16478 15-980): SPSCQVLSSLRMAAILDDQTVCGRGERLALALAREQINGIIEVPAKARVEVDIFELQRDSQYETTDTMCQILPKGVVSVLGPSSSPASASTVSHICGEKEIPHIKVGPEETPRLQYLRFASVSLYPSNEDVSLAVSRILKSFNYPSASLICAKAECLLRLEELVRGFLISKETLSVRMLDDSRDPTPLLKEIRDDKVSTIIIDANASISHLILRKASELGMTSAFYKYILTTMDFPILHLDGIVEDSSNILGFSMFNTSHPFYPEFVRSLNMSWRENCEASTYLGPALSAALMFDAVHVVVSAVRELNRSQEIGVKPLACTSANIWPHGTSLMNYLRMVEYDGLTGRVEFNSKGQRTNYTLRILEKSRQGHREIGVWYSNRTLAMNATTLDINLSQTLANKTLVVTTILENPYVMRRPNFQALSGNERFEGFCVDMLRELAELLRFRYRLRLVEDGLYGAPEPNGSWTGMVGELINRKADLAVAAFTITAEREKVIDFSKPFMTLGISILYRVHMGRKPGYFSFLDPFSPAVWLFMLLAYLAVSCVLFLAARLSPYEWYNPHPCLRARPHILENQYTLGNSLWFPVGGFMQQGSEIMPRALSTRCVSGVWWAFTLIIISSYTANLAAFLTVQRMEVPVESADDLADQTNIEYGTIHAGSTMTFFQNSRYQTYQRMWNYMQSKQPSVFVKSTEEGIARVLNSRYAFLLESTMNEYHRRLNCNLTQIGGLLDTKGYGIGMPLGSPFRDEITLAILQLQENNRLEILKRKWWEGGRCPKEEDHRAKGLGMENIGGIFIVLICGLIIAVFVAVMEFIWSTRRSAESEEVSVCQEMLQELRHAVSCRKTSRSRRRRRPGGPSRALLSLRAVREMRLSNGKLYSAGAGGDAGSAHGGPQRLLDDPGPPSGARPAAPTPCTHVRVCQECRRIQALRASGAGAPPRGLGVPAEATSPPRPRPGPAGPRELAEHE

Cc1cn(C[C@H](N)C(=O)O)c(=O)n(Cc2ccsc2C(=O)O)c1=O [UBP310]
inhibition of heteromeric GluK2/GluK5 receptors [1]: inhibits GluK2/GluK5 | reduction of evoked bursts (coastline burst index) [2]: 55%
